Measured values published in patent US10072001B2, “Tank-binding kinase inhibitor compounds” (Gilead Sciences, Inc., priority 2014, dated 2018).

Columns and labels:
[1] = target: IKKε (Homo sapiens (Human), UniProt Q14164); test: TR-FRET kinase assay, IKKε; format: biochemical; details: full length recombinant IKKε 0.3 nM, 2x Km ATP, 1 μM peptide, 240 min at 25° C.; geometric mean of minimum four determinations
Text: Biological Assay for TBK1 and IKKs:

[2] = target: TBK1 (Homo sapiens (Human), UniProt Q9UHD2); test: TR-FRET kinase assay, TBK1; details: read-out: TBK1-IC50; full length recombinant TBK1 2.5 nM, 2x Km ATP, 1 μM peptide, 240 min at 25° C.; geometric mean of minimum four determinations
Chain of TBK1 (Q9UHD2 whole entry): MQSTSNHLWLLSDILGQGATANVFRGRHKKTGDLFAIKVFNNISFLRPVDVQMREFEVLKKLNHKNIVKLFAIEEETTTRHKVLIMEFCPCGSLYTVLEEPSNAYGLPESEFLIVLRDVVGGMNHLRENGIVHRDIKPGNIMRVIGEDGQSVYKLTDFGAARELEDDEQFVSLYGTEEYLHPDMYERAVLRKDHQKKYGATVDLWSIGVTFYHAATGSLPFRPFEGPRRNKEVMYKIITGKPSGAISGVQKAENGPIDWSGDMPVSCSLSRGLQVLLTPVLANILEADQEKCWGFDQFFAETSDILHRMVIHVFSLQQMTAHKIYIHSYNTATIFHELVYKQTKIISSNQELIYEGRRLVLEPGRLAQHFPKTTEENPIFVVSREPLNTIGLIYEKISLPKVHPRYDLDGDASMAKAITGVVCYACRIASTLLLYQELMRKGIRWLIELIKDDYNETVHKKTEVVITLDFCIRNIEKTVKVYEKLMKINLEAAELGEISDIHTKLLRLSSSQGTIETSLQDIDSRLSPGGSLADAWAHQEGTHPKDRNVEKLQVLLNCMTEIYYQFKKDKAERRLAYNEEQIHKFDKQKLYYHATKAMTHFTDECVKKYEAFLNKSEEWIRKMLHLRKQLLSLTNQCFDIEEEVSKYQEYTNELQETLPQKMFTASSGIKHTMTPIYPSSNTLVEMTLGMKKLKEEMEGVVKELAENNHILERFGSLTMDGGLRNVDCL

Chain of IKKε (Q14164 whole entry): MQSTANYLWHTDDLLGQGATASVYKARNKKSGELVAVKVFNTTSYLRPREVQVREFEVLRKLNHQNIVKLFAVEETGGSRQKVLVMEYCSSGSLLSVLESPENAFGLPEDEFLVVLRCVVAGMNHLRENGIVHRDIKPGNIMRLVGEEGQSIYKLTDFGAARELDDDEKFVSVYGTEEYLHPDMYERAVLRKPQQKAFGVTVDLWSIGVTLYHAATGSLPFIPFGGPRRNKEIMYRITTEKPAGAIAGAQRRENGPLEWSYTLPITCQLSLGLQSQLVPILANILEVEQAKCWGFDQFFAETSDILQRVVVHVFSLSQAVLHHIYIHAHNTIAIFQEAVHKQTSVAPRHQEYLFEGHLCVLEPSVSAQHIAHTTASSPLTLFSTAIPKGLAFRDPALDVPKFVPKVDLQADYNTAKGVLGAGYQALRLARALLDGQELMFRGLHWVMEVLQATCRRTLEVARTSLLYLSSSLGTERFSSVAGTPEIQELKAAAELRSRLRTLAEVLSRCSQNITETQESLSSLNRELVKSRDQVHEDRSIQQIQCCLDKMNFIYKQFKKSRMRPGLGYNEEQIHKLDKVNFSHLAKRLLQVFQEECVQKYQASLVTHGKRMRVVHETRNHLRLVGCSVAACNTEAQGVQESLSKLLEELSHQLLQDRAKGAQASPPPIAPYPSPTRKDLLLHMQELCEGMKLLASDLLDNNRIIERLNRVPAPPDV

Row | Compound | IC50 [1] [nM] | IC50 [2] [nM]
1 | N#Cc1cc(-c2ccnc3[nH]c(-c4ccc(N5CCOCC5)cc4)cc23)ccc1O[C@@H]1CCN(C2COC2)C1 [Example 87, (R)-5-(2-(4-morpholinophenyl)-1H-pyrrolo[2,3-b]pyridin-4-yl)-2-((1-(oxetan-3-yl)pyrrolidin-3-yl)oxy)benzonitrile] | 63 | 26.8
2 | N#Cc1cc(-c2ncnc3[nH]c(-c4ccc(N5CCOCC5)cc4)cc23)ccc1OCC1CC1 [Example 102, 2-(cyclopropylmethoxy)-5-(6-(4-morpholinophenyl)-7H-pyrrolo[2,3-d]pyrimidin-4-yl)benzonitrile] | > 1000 | > 1000
3 | N#Cc1cc(-c2ncnc3[nH]c(-c4cccc(N5CCOCC5)c4)cc23)ccc1OC1CCOCC1 [Example 103, 5-(6-(3-morpholinophenyl)-7H-pyrrolo[2,3-d]pyrimidin-4-yl)-2-((tetrahydro-2H-pyran-4-yl)oxy)benzonitrile] | 18.9 | 2.63
4 | N#Cc1cc(-c2ncnc3[nH]c(-c4ccc(N5CCOCC5)cc4)cc23)ccc1O[C@@H]1CCNC1 [Example 106, (R)-5-(6-(4-morpholinophenyl)-7H-pyrrolo[2,3-d]pyrimidin-4-yl)-2-(pyrrolidin-3-yloxy)benzonitrile] | 19 | 4.94
5 | N#Cc1cc(-c2ncnc3[nH]c(-c4cccc(N5CCOCC5)c4)cc23)ccc1N1CC(O)C1 [Example 110, 2-(3-hydroxyazetidin-1-yl)-5-(6-(3-morpholinophenyl)-7H-pyrrolo[2,3-d]pyrimidin-4-yl)benzonitrile] | 57.4 | 12.6
6 | CC(C)(O)c1ccc(-c2cc3c(-c4ccc(CN5CCOCC5)c(C#N)c4)ncnc3[nH]2)cc1 [Example 111, 5-(6-(4-(2-hydroxypropan-2-yl)phenyl)-7H-pyrrolo[2,3-d]pyrimidin-4-yl)-2-(morpholinomethyl)benzonitrile] | 279 | 36.9
7 | N#Cc1cc(-c2ncnc3[nH]c(-c4ccc(N5CCOCC5)cc4)cc23)ccc1CN1CCOCC1 [Example 112, 2-(morpholinomethyl)-5-(6-(4-morpholinophenyl)-7H-pyrrolo[2,3-d]pyrimidin-4-yl)benzonitrile] | 85 | 19.6
8 | N#Cc1cc(-c2ncnc3[nH]c(-c4cccc(N5CCOCC5)c4)cc23)ccc1CN1CCOCC1 [Example 113, 2-(morpholinomethyl)-5-(6-(3-morpholinophenyl)-7H-pyrrolo[2,3-d]pyrimidin-4-yl)benzonitrile] | 1000 | 69.1
9 | N#Cc1cc(-c2ncnc3[nH]c(-c4ccc(N5CCOCC5)cc4)cc23)ccc1CN1CCCC1=O [Example 115, 5-(6-(4-morpholinophenyl)-7H-pyrrolo[2,3-d]pyrimidin-4-yl)-2-((2-oxopyrrolidin-1-yl)methyl)benzonitrile] | 1000 | 45.7
10 | N#Cc1cc(-c2ccnc3[nH]c(C(=O)N4CCOCC4)cc23)ccc1OC1CCOCC1 [Example 116, 5-(2-(morpholine-4-carbonyl)-1H-pyrrolo[2,3-b]pyridin-4-yl)-2-((tetrahydro-2H-pyran-4-yl)oxy)benzonitrile] | 667 | 1000
11 | N#Cc1cc(-c2ccnc3[nH]c(C(=O)N4CCCC4)cc23)ccc1OC1CCOCC1 [Example 117, 5-(2-(pyrrolidine-1-carbonyl)-1H-pyrrolo[2,3-b]pyridin-4-yl)-2-((tetrahydro-2H-pyran-4-yl)oxy)benzonitrile] | 262 | 383
12 | CN1CCN(C(=O)c2cc3c(-c4ccc(OC5CCOCC5)c(C#N)c4)ccnc3[nH]2)CC1 [Example 118, 5-(2-(4-methylpiperazine-1-carbonyl)-1H-pyrrolo[2,3-b]pyridin-4-yl)-2-((tetrahydro-2H-pyran-4-yl)oxy)benzonitrile] | 291 | 1000
13 | Cc1cc(N2CCOCC2)ccc1-c1cc2c(-c3ccc(OC4CCNCC4)c(C#N)c3)ncnc2[nH]1 [Example 120, 5-(6-(2-methyl-4-morpholinophenyl)-7H-pyrrolo[2,3-d]pyrimidin-4-yl)-2-(piperidin-4-yloxy)benzonitrile] | 102 | 22.2
14 | COc1cc(-c2cc3c(-c4ccc(OC5CCNCC5)c(C#N)c4)ncnc3[nH]2)ccc1N1CCOCC1 [Example 122, 5-(6-(3-methoxy-4-morpholinophenyl)-7H-pyrrolo[2,3-d]pyrimidin-4-yl)-2-(piperidin-4-yloxy)benzonitrile] | 115 | 21.2
15 | COc1ccc(-c2cc3c(-c4ccc(OC5CCNCC5)c(C#N)c4)ncnc3[nH]2)cc1 [Example 123, 5-(6-(4-methoxyphenyl)-7H-pyrrolo[2,3-d]pyrimidin-4-yl)-2-(piperidin-4-yloxy)benzonitrile] | 65.8 | 22.4
16 | Cc1cc(N2CCOCC2)ccc1-c1cc2c(-c3ccc(OC4CCOCC4)c(C#N)c3)ccnc2[nH]1 [Example 124, 5-(2-(2-methyl-4-morpholinophenyl)-1H-pyrrolo[2,3-b]pyridin-4-yl)-2-((tetrahydro-2H-pyran-4-yl)oxy)benzonitrile] | 18.6 | 5.9
17 | N#Cc1cc(-c2ncnc3[nH]c(-c4ccc(OC(F)(F)F)cc4)cc23)ccc1OC1CCN(C(=O)CO)CC1 [Example 128, 2-((1-(2-hydroxyacetyl)piperidin-4-yl)oxy)-5-(6-(4-(trifluoromethoxy)phenyl)-7H-pyrrolo[2,3-d]pyrimidin-4-yl)benzonitrile] | 13.6 | 4.21
18 | CC(C)(O)c1ccc(-c2cc3c(-c4ccc(OC5CCOCC5)c(C#N)c4)ncnc3[nH]2)cn1 [Example 129, 5-(6-(6-(2-hydroxypropan-2-yl)pyridin-3-yl)-7H-pyrrolo[2,3-d]pyrimidin-4-yl)-2-((tetrahydro-2H-pyran-4-yl)oxy)benzonitrile] | 17.4 | 2.77

Stronger by IC50 [1], values ahead:

Row | IC50 [1] [nM] | IC50 [2] [nM] | Compound
19 | 11.7 | 2.26 | N#CCC(=O)N1CC[C@@H](Oc2ccc(-c3ncnc4[nH]c(-c5ccc(N6CCOCC6)cc5)cc34)cc2C#N)C1 [Example 107, (R)-2-((1-(2-cyanoacetyl)pyrrolidin-3-yl)oxy)-5-(6-(4-morpholinophenyl)-7H-pyrrolo[2,3-d]pyrimidin-4-yl)benzonitrile]
20 | 10.6 | 5.43 | COc1ccc(-c2cc3c(-c4ccc(OC5CCN(C(=O)CO)CC5)c(C#N)c4)ncnc3[nH]2)cn1 [Example 130, 2-((1-(2-hydroxyacetyl)piperidin-4-yl)oxy)-5-(6-(6-methoxypyridin-3-yl)-7H-pyrrolo[2,3-d]pyrimidin-4-yl)benzonitrile]
21 | 9.58 | 4.64 | N#Cc1cc(-c2ncnc3[nH]c(-c4ccc(Cl)cc4)cc23)ccc1OC1CCN(C(=O)CO)CC1 [Example 127, 5-(6-(4-chlorophenyl)-7H-pyrrolo[2,3-d]pyrimidin-4-yl)-2-((1-(2-hydroxyacetyl)piperidin-4-yl)oxy)benzonitrile]
22 | 8.18 | 3.81 | Cn1cc(-c2cc3c(-c4ccc(OC5CCOCC5)c(C#N)c4)ncnc3[nH]2)cn1 [Example 104, 5-(6-(1-methyl-1H-pyrazol-4-yl)-7H-pyrrolo[2,3-d]pyrimidin-4-yl)-2-((tetrahydro-2H-pyran-4-yl)oxy)benzonitrile]
23 | 8.06 | 1.72 | N#Cc1cc(-c2ncnc3[nH]c(-c4ccc(N5CCOCC5)cc4)cc23)ccc1OC1CCOCC1 [Example 101, 5-(6-(4-morpholinophenyl)-7H-pyrrolo[2,3-d]pyrimidin-4-yl)-2-((tetrahydro-2H-pyran-4-yl)oxy)benzonitrile]
24 | 5.79 | 5.13 | N#Cc1cc(-c2ncnc3[nH]c(-c4ccc(Cn5ccnc5)cc4)cc23)ccc1OC1CCOCC1 [Example 114, 5-(6-(4-((1H-imidzol-1-yl)methyl)phenyl)-7H-pyrrolo[2,3-d]pyrimidin-4-yl)-2-((tetrahydro-2H-pyran-4-yl)oxy)benzonitrile]
25 | 5.54 | 0.87 | N#Cc1cc(-c2ncnc3[nH]c(-c4ccc(N5CCN(C6COC6)CC5)cc4)cc23)ccc1OC1CCOCC1 [Example 105, 5-(6-(4-(4-(oxetan-3-yl)piperazin-1-yl)phenyl)-7H-pyrrolo[2,3-d]pyrimidin-4-yl)-2-((tetrahydro-2H-pyran-4-yl)oxy)benzonitrile]
26 | 4.99 | 0.821 | CC(C)(O)c1ccc(-c2cc3c(-c4ccc(OC5CCOCC5)c(C#N)c4)ncnc3[nH]2)cc1 [Example 109, 5-(6-(4-(2-hydroxypropan-2-yl)phenyl)-7H-pyrrolo[2,3-d]pyrimidin-4-yl)-2-((tetrahydro-2H-pyran-4-yl)oxy)benzonitrile]
27 | 4.4 | 1.28 | Cc1cc(N2CCOCC2)ccc1-c1cc2c(-c3ccc(OC4CCN(C(=O)CO)CC4)c(C#N)c3)ncnc2[nH]1 [Example 121, 2-((1-(2-hydroxyacetyl)piperidin-4-yl)oxy)-5-(6-(2-methyl-4-morpholinophenyl)-7H-pyrrolo[2,3-d]pyrimidin-4-yl)benzonitrile]
28 | 3.29 | 1.34 | COc1ccc(-c2cc3c(-c4ccc(OC5CCN(C(=O)CO)CC5)c(C#N)c4)ncnc3[nH]2)cc1 [Example 126, 2-((1-(2-hydroxyacetyl)piperidin-4-yl)oxy)-5-(6-(4-methoxyphenyl)-7H-pyrrolo[2,3-d]pyrimidin-4-yl)benzonitrile]
29 | 2.62 | 0.9 | COc1cc(-c2cc3c(-c4ccc(OC5CCN(C(=O)CO)CC5)c(C#N)c4)ncnc3[nH]2)ccc1N1CCOCC1 [Example 125, 2-((1-(2-hydroxyacetyl)piperidin-4-yl)oxy)-5-(6-(3-methoxy-4-morpholinophenyl)-7H-pyrrolo[2,3-d]pyrimidin-4-yl)benzonitrile]
30 | 1.22 | 1.23 | N#Cc1cc(-c2ncnc3[nH]c(-c4cccc(Cn5ccnc5)c4)cc23)ccc1OC1CCOCC1 [Example 119, 5-(6-(3-((1H-imidazol-1-yl)methyl)phenyl)-7H-pyrrolo[2,3-d]pyrimidin-4-yl)-2-((tetrahydro-2H-pyran-4-yl)oxy)benzonitrile]
